Measurements from PMC5573760 (Cancer Chemotherapy and Pharmacology, 2017).
Values joined by “and” are separate entries in the source; they are usually repeats but may differ in a detail not shown here. Identical values can stand only once.

Tests used:
PI3K-α = settings: cited from earlier work
[1] = system: primary malignant B cell lines; settings: cited from earlier work
P-glycoprotein (P-gp) = system: P-glycoprotein (P-gp); design: method as in Bayer AG, data on file; settings: in vitro; ref Bayer AG, data on file; cited from earlier work
[2] = Mass balance: excretion of radioactivity, copanlisib and metabolites in urine and feces; type: in vivo, human; settings: for Amount excreted in feces as this component, arithmetic mean (range): HPLC with off-line radioactivity detection
Method: After pooling and homogenization of urine and feces samples per time interval, aliquots were stored at −20 °C for total radioactivity determination and at −70°C for metabolic profiling (including blood/plasma samples). For determination of total radioactivity, samples were analyzed with a Perkin Elmer Tri-Carb™ 3100 TR liquid scintillation analyzer (Perkin Elmer, Waltham, MA, USA) with quenching correction. For metabolite profiling, plasma samples were treated with a mixture of acetonitrile (ACN) +0.2% acetic acid, after shaking and centrifugation, the supernatant was concentrated. Urine and feces samples were treated with solid-phase extraction (Waters HLB 30 mg, 1 mL, Waters, Milford, MA, USA) and liquid–liquid extraction (ACN + 0.2% trifluoroacetic acid/water, 80:20 volume/volume), respectively. Subsequently samples from plasma, urine and feces were analyzed by HPLC-LSC on Synergi Polar 4 µm 150 × 2 mm (Phenomenex, Aschaffenburg, Germany) with off-line radioactivity detection by Microbeta^2™ Plus liquid scintillation counter with Ultima Flo™ AP scintillation fluid (Packard Instrument BV, Groningen, The Netherlands).
Metabolite patterns in plasma, urine and feces were studied by the HPLC method with off-line radioactivity detection described above.
A similar approach has been described earlier.

clinical = settings: male, human, in vivo; for clearance: CL (total body clearance); for Tmax: t max; for half-life: t ½ (terminal half-life)
Method: All subjects gave written informed consent; the study was conducted at PRA Health Sciences (Zuidlaren, The Netherlands) in accordance with the Declaration of Helsinki and was approved by an accredited institutional ethics committee (Medisch Ethische Toetsings Commissie, Assen, The Netherlands).
Subjects remained fasting until 2-h after the end of the infusion. Volunteers stayed in-house until 14 days after the application and subsequently urine and feces were collected for 24-h on Day 16, 20, 27 and 34 if necessary, cf. below.
Urine was collected pre-dose, at 0–12-h and 12–24 h after the start of the infusion and thereafter over 24-h intervals on Day 2 to Day 14 as well as on Day 16, 20, 27 and 34 (±1 day). Cumulative 24-h fecal samples were collected from Day 1 (day of infusion) to Day 14 and as well as on Day 16, 20, 27 and 34 (±1 day). […] The excreted radioactivity between ambulant visits during the prolongation phase of the clinical study was calculated using interpolation to get a more realistic total excretion value of all subjects (see "Pharmacokinetic analysis").
All samples were frozen at −70 °C and analyzed within 60 days of sample collection.
For blood/plasma ratio determination, total radioactivity in urine and feces well as data from HPLC analysis data from radioactivity measurement by liquid scintillation counting (LSC) were considered. The amount of radioactivity recovered in the excreta (A E) was related to the administered radioactive dose to establish the radioactive balance. Arithmetic means and coefficients of variation (CV) were calculated for these percentages. […] Cumulative excretion was calculated as sum of the collection intervals. The elimination of the total radioactivity in urine and feces for time-points beyond day 14 was performed by log-linear extrapolation between analyzed time-points. Amounts of radioactivity excreted in urine and feces between two ambulant visits were calculated per interpolated day by linear interpolation of log-transformed excretion data separately per matrix (lnA E(interpolated day) = Δdays × [lnA E(Visit i + 1) − lnA E(Visit i)]/[day (Visit i + 1) − day (Visit i)] + lnA E(Visit i), with A E given as amount of radioactivity excreted in matrix per day and Δdays being the difference between the calculated day and the last available visit with A E > 0). In case no feces sample was provided on an ambulant visit, this visit was neglected for interpolation. A similar approach has been described earlier. The concentration/amount for each component of each sample/time-point was calculated by multiplying the total radioactivity concentration/amount of each sample with %-area of each component obtained after off-line HPLC separation. The amount of radioactivity in urine and feces at late time-points where no component was detected was distributed in the same percentage to the component (s) present at the time-point before.
Compartment-free analysis was performed employing WinNonlin software (version 5.3, Pharsight Certara, Princton, NJ, USA).
Pharmacokinetic parameters were evaluated by descriptive data analysis without formal hypothesis testing by calculating either medians (t max, t last) or geometric means and %CV (remaining parameters). Excretion data (urine, feces, total) were evaluated by arithmetic means.

plasma protein = settings: reversible; cited from earlier work
cytochrome P450 3A4 = system: cytochrome P450 3A4; design: method as in Bayer AG, data on file; settings: in vitro, humans; ref Bayer AG, data on file; cited from earlier work
[3] = cited from earlier work
[4] = all 6 subjects after individual study release (Day 20–Day 34)
[5] = study release at Day 20 (N = 6)
[6] = study release at Day 27 (N = 5)
[7] = study release at Day 34 (N = 3)

COc1c(OCCCN2CCOCC2)ccc2c1N=C(NC(=O)c1cnc(N)nc1)N1CCN=C21 [Copanlisib, copanlisib]
PI3K-α inhibitory activity (PI3K-α): predominant PI3K-α and PI3K-δ inhibitory activity | Tumor cell death [1]: induce tumor cell death including apoptosis | Substrate of efflux transporter P-gp (P-glycoprotein (P-gp)): substrate | Total radioactivity excreted in feces, arithmetic mean [2, 4]: 64.2 (56.7–68.1) % of dose | Total radioactivity excreted in feces, range [2, 4]: 56.7–68.1% | Total radioactivity excreted in urine, arithmetic mean [2, 4]: 21.7 (17.0–27.4) % of dose | Total radioactivity excreted in urine, range [2, 4]: 17.0–27.4% | Total radioactivity recovery in urine and feces, mean [2, 4]: 86% and 85.9 ± 3.4% and about 86% | Total radioactivity recovery in urine and feces, range [2, 4]: 81.7–91.0% | Amount excreted in feces as this component, arithmetic mean (range) ([2]; 6 subjects): 30.1 (16.8–37.9) % of dose | Amount excreted in feces as this component, arithmetic mean (range) ([2]; 6 subjects, listed as copanlisib): 30 % of dose | Dose cleared via metabolism ([2]; in vivo): about 41% | Renal clearance (A e,ur/AUC) as share of total body clearance ([2]; in vivo): about 15% | Share of observed renal clearance accounted for by passive renal filtration ([2]; in vivo): about one to two-thirds | Excreted radioactivity in feces, mean [2, 5]: 61.0 ± 4.1% | Excreted radioactivity in feces, range [2, 5]: 54.8–66.7% | Excreted radioactivity in urine, mean [2, 5]: 20.0 ± 3.5% | Excreted radioactivity in urine, range [2, 5]: 16.3–26.5% | Excreted total radioactivity in urine and feces, mean [2, 5]: 81.0 ± 2.1% | Excreted total radioactivity in urine and feces, range [2, 5]: 77.8–83.0% | Excreted radioactivity in feces, mean [2, 6]: 63.4 ± 4.5% | Excreted radioactivity in feces, range [2, 6]: 56.7–67.4% | Excreted radioactivity in urine, mean [2, 6]: 21.5 ± 3.9% | Excreted radioactivity in urine, range [2, 6]: 17.0–27.4% | Excreted total radioactivity in urine and feces, mean [2, 6]: 84.9 ± 2.3% | Excreted total radioactivity in urine and feces, range [2, 6]: 82.3–88.5% | Excreted radioactivity in feces, mean [2, 7]: 66.1 ± 3.2% | Excreted radioactivity in feces, range [2, 7]: 62.4–68.1% | Excreted radioactivity in urine, mean [2, 7]: 22.2 ± 1.4% | Excreted radioactivity in urine, range [2, 7]: 20.6–23.1% | Excreted total radioactivity in urine and feces, mean [2, 7]: 88.3 ± 2.9% | Excreted total radioactivity in urine and feces, range [2, 7]: 85.2–91.0% | Radioactivity excreted that could be assigned to known structures ([2]; urine and feces): Over 98% | Amount of dose recovered as this component in urine and feces combined ([2]; urine plus feces, 6 subjects): 45.1 % of dose | Amount of dose recovered as this component in urine and feces combined, range ([2]; urine plus feces, range of 6 subjects): 33.3–53.8% | AUC (0–t last) of total radioactivity (%) covered by the component, average (clinical): about 84% | CL (total body clearance), geometric mean (%CV) (clinical; iv): 24.8 (41.3%) L/h | t ½ (terminal half-life), geometric mean (%CV) (clinical; iv): 52.1 (20.9%) h | t ½ (terminal half-life), range (clinical; iv): 40.4 to 67.5 h | clearance (clinical; iv, geometric mean (%CV)): ~413 mL/min | clearance (clinical; iv, range): 237 to 680 mL/min | Vd (clinical; iv, V z (volume of distribution during terminal phase), geometric mean (%CV)): ~1870 L | Vd (clinical; iv, V z, range): 1250 to 2450 L | Tmax (clinical; iv, median): 1 h | Tmax (clinical; iv, range): 0.5 to 1 h | half-life (clinical; iv, geometric mean (%CV)): 52 h | half-life (clinical; iv, range): 40 to 67 h | free fraction (fraction unbound in plasma), plasma protein binding (plasma protein): 15.8% | Involvement of cytochrome P450 3A4 in the primary biotransformation step (cytochrome P450 3A4): predominant involvement | mean systemic plasma clearance ([3]; %CV 51.2, dose escalation study): 18.9 L/h | Accumulation and time dependency after once weekly dosing ([3]; PK on Cycle 1 Days 1 and 15 and Cycle 3 Day 15, dose escalation study): No accumulation and no time dependency | Half-life, range (known PK of copanlisib) [3]: 16.9 to 72.7 h | Dose dependence of C max and AUC (0–25) ([3]; dose range 0.1–1.2 mg/kg (5–93 mg total dose), dose escalation study): dose proportional increases | terminal phase half-life (t 1/2) ([3]; human, in vivo, 0.8 mg/kg): 39.1 h | volume of distribution ([3]; human, in vivo, 0.8 mg/kg): 871 L
